Source: patent publication US6495715B2, “Calcium channel blockers” (Warner-Lambert Company, priority 1997, dated 2002)
pIC50: −log10 of the molar value. Counter-ions that a name gives are not always drawn. Values belong to the molecule of their own block, whether it stands above or below them.

Target: T1, N-type Ca2+ channel (Homo sapiens, UniProt Q00975)
T1 construct: host or cells: IMR-32 cells, differentiated with dibutyryl cAMP and bromodeoxyuridine
Experiment: Measurement of N-type Ca2+ channel blocking potencies in IMR-32 cells using the fluorescent Ca2+ indicator Indo-1
Assay type: cell-based
Conditions: for inhibition at 1 µM / IMR 32 % of Blockade @ 1 μM: 1 μM compound; for inhibition at 1 µM: read-out: IMR 32 % of Blockade @ 1 μM; for inhibition at 10 µM / IMR 32 % of Blockade @ 10 μM: 10 μM compound; for inhibition at 10 µM: read-out: IMR 32 % of Blockade @ 10 μM; for pIC50: K+-stimulated Ca2+ flux, 5 μM nitrendipine to block L-type channels
Description: Measurement of N-type Ca^2+ Channel Blocking Potencies of Compounds in IMR-32 Cells Using the Fluorescent Ca^2+Indicator Indo-1
IMR-32 cells are a human tumoral cell line of neural origin. […] Calcium flux into these cells may be induced by stimulation with elevated potassium concentrations. The L-channel component of calcium flux may be blocked by adding 5 μM nitrendipine. The remaining component of calcium entry into the IMR-32 cells is due to calcium flux through N-type calcium channels. Intracellular calcium concentrations are measured using the fluorescent calcium indicator Indo-1. The effect of drug concentration on calcium uptake is studied.
The IMR-32 cell line was obtained from the American Type Culture Collection (Rockville, Md.). Cells were grown in Eagle's Minimum Essential Medium with Earle's salts supplemented with 10% fetal bovine serum, 2 mM L-Gln and antibiotic/antimycotic mixture (Gibco). […] After 7 to 13 days of differentiation, cells were detached using 0.5 mM EDTA and loaded with 5 μM Indo-1 acetoxymethyl ester (Molecular Probes, Eugene, Oreg.) at 30° C. for 45 minutes. Loaded cells were washed twice, resuspended (˜10^7 cells/mL) in assay buffer (10 mM HEPES/Tris pH 7.4 in Hank's Balanced Salt Solution without bicarbonate or phenol red containing 0.5% bovine serum albumin) and kept on ice until use. Fluorescence measurements were carried out in a Photon Technology International (PTI, South Brunswick, N.J.) Model RF-F3004 spectrofluorometer with dual emission monochromators using excitation at […] and emission at 400 and 490 nm. The instrument was equipped with a thermostated cuvette holder with stirring capabilities as well as with a computer-controlled pump which allowed for reagent addition during measurement. Instrument control and data collection was done by PTI's OSCAR software running on an IBM compatible computer. Different concentrations of the test compounds (60 μL in dimethyl sulfoxide) were added to 5.94 mL of assay buffer containing approximately 3×10^6 loaded cells, and 5 μM Nitrendipine (in […] EtOH) to block L-type Ca^2+ channels. Samples were incubated for 10 minutes at 30° C. and then aliquoted into three 10×10 mm disposable acrylic cuvettes. Emission signals at 400 and 490 nm were acquired from each cuvette at 30° C. for 50 seconds. At 20 seconds after the start of reading, cells were depolarized by the addition of 160 μL of stimulation solution (1 M KCl, 68 mM CaCl2) to the cuvette via the computer-controlled pump. Ratio of dual emission signals (400 nm/490 nm), which is proportional to intracellular Ca^2+ concentration, was plotted against time, and the difference between maximal response after stimulation and basal value (before stimulation) was determined. Values obtained in this way were plotted as a function of drug concentration. IC50 values of test compounds were calculated by fitting a four-parameter logistic function to the data using the least squares method.

T1 sequence (Q00975 whole entry): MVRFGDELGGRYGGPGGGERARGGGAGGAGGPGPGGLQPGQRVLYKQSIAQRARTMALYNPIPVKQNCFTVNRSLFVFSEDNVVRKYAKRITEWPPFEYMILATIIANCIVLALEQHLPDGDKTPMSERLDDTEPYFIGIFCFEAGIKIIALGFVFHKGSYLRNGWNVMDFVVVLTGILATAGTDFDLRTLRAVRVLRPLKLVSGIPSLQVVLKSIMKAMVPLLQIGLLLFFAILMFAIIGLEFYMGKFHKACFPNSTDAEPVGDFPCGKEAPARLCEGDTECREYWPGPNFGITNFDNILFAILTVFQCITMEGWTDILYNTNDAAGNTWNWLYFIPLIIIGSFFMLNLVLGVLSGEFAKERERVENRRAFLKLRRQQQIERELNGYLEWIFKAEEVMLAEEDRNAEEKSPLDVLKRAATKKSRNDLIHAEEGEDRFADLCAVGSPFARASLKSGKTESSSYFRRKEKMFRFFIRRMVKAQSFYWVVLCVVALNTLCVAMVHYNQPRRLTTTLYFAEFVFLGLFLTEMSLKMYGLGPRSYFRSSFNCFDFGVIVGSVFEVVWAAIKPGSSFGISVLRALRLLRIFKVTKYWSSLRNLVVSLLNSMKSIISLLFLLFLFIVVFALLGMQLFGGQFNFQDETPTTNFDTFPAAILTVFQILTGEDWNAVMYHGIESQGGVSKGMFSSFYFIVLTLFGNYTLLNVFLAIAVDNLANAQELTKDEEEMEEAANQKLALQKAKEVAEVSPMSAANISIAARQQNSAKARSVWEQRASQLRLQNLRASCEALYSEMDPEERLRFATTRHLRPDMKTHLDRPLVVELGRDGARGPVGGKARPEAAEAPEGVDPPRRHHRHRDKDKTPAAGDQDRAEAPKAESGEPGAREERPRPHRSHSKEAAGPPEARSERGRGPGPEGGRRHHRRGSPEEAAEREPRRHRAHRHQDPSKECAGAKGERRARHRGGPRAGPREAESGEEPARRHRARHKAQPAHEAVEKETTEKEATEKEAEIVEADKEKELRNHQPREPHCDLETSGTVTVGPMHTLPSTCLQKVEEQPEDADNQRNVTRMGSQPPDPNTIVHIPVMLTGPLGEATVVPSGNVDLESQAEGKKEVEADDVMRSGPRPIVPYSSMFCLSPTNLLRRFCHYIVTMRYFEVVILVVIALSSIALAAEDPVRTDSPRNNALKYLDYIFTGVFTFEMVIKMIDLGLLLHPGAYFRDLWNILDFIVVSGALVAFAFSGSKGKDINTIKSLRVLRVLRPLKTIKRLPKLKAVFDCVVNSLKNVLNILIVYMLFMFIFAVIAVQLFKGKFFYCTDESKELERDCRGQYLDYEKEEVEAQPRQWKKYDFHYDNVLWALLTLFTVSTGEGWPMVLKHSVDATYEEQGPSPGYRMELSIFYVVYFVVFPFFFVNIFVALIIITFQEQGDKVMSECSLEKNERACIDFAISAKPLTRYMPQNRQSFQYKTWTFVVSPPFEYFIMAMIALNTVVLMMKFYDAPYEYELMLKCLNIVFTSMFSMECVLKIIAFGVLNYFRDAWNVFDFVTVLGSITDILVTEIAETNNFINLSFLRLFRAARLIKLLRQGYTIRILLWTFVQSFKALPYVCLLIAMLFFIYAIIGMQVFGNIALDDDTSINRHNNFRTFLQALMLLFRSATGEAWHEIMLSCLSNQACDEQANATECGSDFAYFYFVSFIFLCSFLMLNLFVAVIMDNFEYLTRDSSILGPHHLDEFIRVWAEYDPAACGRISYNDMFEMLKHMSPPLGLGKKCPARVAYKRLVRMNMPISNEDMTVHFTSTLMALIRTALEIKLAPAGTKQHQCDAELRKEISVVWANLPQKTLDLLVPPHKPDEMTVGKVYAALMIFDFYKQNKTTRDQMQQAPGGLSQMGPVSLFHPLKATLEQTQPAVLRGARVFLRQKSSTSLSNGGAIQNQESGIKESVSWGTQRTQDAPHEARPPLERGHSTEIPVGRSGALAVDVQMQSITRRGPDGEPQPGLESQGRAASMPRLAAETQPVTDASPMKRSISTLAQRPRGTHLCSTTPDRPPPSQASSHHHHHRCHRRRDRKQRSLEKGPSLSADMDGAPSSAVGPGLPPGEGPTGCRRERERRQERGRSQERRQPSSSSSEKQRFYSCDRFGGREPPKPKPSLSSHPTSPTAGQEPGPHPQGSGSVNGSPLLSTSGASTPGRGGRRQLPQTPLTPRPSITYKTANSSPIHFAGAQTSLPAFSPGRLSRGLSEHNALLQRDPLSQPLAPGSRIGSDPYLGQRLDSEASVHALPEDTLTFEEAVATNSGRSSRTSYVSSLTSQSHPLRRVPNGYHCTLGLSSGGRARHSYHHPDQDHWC
T1 sequence (P54289 25-956 partner limits assumed): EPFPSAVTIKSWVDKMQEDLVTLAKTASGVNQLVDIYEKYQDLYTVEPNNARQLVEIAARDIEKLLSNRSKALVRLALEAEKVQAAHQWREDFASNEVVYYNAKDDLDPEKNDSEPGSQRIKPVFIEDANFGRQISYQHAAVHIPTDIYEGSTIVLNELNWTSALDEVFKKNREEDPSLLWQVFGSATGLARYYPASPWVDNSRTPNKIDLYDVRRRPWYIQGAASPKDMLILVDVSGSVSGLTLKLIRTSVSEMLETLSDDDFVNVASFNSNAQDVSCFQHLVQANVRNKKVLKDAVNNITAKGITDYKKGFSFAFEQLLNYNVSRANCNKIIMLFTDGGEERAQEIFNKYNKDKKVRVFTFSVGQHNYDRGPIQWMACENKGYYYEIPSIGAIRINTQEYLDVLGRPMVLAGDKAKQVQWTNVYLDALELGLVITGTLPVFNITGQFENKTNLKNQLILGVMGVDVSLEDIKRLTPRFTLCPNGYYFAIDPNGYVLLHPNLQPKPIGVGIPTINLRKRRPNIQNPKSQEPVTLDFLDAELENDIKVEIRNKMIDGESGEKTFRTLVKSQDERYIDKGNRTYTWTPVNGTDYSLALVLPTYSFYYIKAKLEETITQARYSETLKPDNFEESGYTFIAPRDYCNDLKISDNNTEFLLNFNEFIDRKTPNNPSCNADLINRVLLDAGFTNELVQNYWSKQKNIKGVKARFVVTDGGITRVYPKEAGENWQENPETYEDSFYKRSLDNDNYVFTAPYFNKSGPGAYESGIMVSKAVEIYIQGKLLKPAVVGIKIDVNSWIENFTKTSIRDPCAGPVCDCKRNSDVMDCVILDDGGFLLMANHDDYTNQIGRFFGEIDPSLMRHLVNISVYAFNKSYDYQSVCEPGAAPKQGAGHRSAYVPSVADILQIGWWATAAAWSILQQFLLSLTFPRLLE
T1 sequence (P54289 957-1103 partner limits assumed): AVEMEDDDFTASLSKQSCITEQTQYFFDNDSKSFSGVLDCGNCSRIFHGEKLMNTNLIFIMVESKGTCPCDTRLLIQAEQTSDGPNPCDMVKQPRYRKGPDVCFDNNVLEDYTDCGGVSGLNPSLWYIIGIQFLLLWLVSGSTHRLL
T1 sequence (Q02641 whole entry partner): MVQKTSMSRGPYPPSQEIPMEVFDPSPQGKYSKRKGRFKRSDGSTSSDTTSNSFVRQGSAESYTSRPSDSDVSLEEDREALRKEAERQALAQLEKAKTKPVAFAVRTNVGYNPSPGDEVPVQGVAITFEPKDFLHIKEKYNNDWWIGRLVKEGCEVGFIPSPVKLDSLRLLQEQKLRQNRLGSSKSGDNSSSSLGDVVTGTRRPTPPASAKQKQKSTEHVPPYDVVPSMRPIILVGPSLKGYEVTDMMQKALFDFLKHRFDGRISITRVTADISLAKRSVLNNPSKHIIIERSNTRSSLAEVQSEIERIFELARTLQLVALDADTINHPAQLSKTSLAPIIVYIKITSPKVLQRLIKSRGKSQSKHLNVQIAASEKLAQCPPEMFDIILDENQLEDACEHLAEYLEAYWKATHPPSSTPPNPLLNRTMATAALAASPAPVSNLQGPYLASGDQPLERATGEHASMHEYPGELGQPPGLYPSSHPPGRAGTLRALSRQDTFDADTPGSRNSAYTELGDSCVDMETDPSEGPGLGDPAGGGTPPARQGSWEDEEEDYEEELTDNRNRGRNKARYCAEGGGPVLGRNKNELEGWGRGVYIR

SMILES: CC(C)C[C@H](NC(=O)N1CCCCCC1)C(=O)NC(C)(C)CN(c1ccc(OCc2ccccc2)cc1)C1C=CCCC1 (stereo partly drawn) [Example 8, (S)-Azepane-1-carboxylic acid (1-{2-[(4-benzyloxy-phenyl)-cyclohex-2-enyl-amino]-1,1-dimethyl-ethylcarbamoyl}-3-methyl-butyl)-amide]
inhibition at 1 µM (5 μM nitrendipine): 55%
inhibition at 10 µM (5 μM nitrendipine): 76%

SMILES: CC(C)=CCN(C[C@H](C)NC(=O)[C@H](CC(C)C)N(CCC(C)C)CCC(C)C)c1ccc(OCc2ccccc2)cc1 (relative stereo) [Example 18, [S-(R*,R*)]-2-[Bis-(3-methyl-butyl)-amino]-4-methyl-pentanoic acid {2-[(4-benzyloxy-phenyl)-(3-methyl-but-2-enyl)-amino]-1-methyl-ethyl}-amide]
IMR 32 % of Blockade @ 1 μM (5 μM nitrendipine): 67%
IMR 32 % of Blockade @ 10 μM (5 μM nitrendipine): 71%

SMILES: CC(C)=CCN(c1ccc(OCc2ccccc2)cc1)C1CCN(C(=O)[C@H](CC(C)C)NC(=O)N2CCCCCC2)CC1 [Example 5, (S)-Azepane-1-carboxylic acid (1-{4-[(4-benzyloxy-phenyl)-(3-methyl-but-2-enyl)-amino]-piperidine-1-carbonyl}-3-methyl-butyl)-amide hydrochloride salt]
pIC50: 6.30

SMILES: CC(C)=CCN(CC(C)(C)NC(=O)[C@H](CC(C)C)N(C)C)c1ccc(OCc2ccccc2)cc1 [Example 9, (S)-2-Dimethylamino-4-methyl-pentanoic acid {2-[(4-benzyloxy-phenyl)-(3-methyl-but-2-enyl)-amino]-1,1-dimethyl-ethyl}-amide]
pIC50: 5.80

SMILES: CC(C)=CCN(CC(C)(C)NC(=O)[C@H](CC(C)C)N(C)CCC(C)C)c1ccc(OCc2ccccc2)cc1 [Example 11, (S)-4-Methyl-2-[methyl-(3-methyl-butyl)-amino]-pentanoic acid {2-[(4-benzyloxy-phenyl)-(3-methyl-but-2-enyl)-amino]-1.1-dimethyl-ethyl}-amide]
IMR 32 % of Blockade @ 1 μM (5 μM nitrendipine): 49%
IMR 32 % of Blockade @ 10 μM (5 μM nitrendipine): 91%

SMILES: CC(C)=CCN(C[C@H](C)NC(=O)[C@H](CC(C)C)N(CC=C(C)C)CC=C(C)C)c1ccc(OCc2ccccc2)cc1 (relative stereo) [Example 19, [S-(R*,R*)]-2-{Bis]-(3-methyl-but-2-enylamino)-4-Methyl-pentanoic acid {2-[(4-benzyloxy-phenyl)-(3-methyl-but-2-enyl)-amino]-1-methyl-ethyl 1-amide]
IMR 32 % of Blockade @ 1 μM (5 μM nitrendipine): 74%
IMR 32 % of Blockade @ 10 μM (5 μM nitrendipine): 70%

SMILES: CC(C)CCN(C)[C@@H](CC(C)C)C(=O)NC(C)(C)CN(c1ccc(OCc2ccccc2)cc1)C1C=CCCC1 (stereo partly drawn) [Example 17, (S)-4-Methyl-2-[methyl-(3-methyl-butyl)-amino]-pentanoic acid {2-[(4-benzyloxy-phenyl)-cyclohex-2-enyl-amino]-1,1-dimethyl-ethyl}-amide]
inhibition at 1 µM (5 μM nitrendipine): 57%
inhibition at 10 µM (5 μM nitrendipine): 80%

SMILES: CC(C)=CCN(C[C@H](C)NC(=O)[C@H](CC(C)C)NC(=O)N1CCCCCC1)c1ccc(OCc2ccccc2)cc1 (relative stereo) [Example 2, [S-(R*,R*)]-Azepane-1-carboxylic acid (1-{2-[(4-benzyloxy-phenyl)-(3-methyl-but-2-enyl)-amino]-1-methyl-ethylcarbamoyl}-3-methyl-butyl)-amide]
IMR 32 % of Blockade @ 1 μM (5 μM nitrendipine): 50% @ 1

SMILES: CC(C)=CCN(CC(C)(C)NC(=O)[C@H](CC(C)C)N(C)C1C=CCCC1)c1ccc(OCc2ccccc2)cc1 (stereo partly drawn) [Example 12, (S)-2-(Cyclohex-2-enyl-methyl-amino)-4-methyl-pentanoic acid {2-[(4-benzyloxy-phenyl)-(3-methyl-but-2-enyl)-amino]-1,1-dimethyl-ethyl}-amide]
pIC50: 6.20

SMILES: CC(C)=CCN(C[C@H](C)NC(=O)[C@H](CC(C)C)N(C)C)c1ccc(OCc2ccccc2)cc1 (relative stereo) [Example 14, [S-(R*,R*)]-2-Dimethylamino-4-methyl-pentanoic acid {2-[(4-benzyloxy-phenyl)-(3-methyl-but-2-enyl)-amino]-1-methyl-ethyl}-amide]
IMR 32 % of Blockade @ 1 μM (5 μM nitrendipine): 36%
IMR 32 % of Blockade @ 10 μM (5 μM nitrendipine): 86%

SMILES: CC(C)=CCN[C@@H](CC(C)C)C(=O)N[C@@H](C)CN(CC=C(C)C)c1ccc(OCc2ccccc2)cc1 (relative stereo) [Example 15, [S-(R*,R*)]-4-Methyl-2-(3-methyl-but-2-enylamino)-pentanoic acid {2-[(4-benzyloxy-phenyl)-(3-methyl-but-2-enyl)-amino]-1-methyl-ethyl}-amide]
IMR 32 % of Blockade @ 0.3 μM (0.3 μM compound, 5 μM nitrendipine): 21%
IMR 32 % of Blockade @ 3 μM (3 μM compound, 5 μM nitrendipine): 65%

SMILES: CC(C)=CCN(CC(C)(C)NC(=O)[C@H](CC(C)C)N(C)Cc1ccc(C(C)(C)C)cc1)c1ccc(OCc2ccccc2)cc1 [Example 13, (S)-2-[(4-tert-Butyl-benzyl)-methyl-amino]-4-methyl-pentanoic acid {2-[(4-benzyloxy-phenyl)-(3-methyl-but-2-enyl)-amino]-1.1-dimethyl-ethyl}-amide]
pIC50: 5.25

Second part, the molecule after the results:

inhibition at 1 µM (5 μM nitrendipine): 83%
SMILES: CC(C)CCN(c1ccc(NC(=O)OCc2ccccc2)cc1)C1CCN(C(=O)[C@H](CC(C)C)NC(=O)N2CCCCCC2)CC1 [Example 34, (S)-{4-[(1-{2-[(Azepane-1-carbonyl)-amino]-4-methyl-pentanoyl}-piperidin-4-yl)-(3-methyl-butyl)-amino]-phenyl}-carbamic acid benzyl ester]

pIC50: 5.96
SMILES: CC(C)CCN(c1ccc(NCc2ccccn2)cc1)C1CCN(C(=O)[C@H](CC(C)C)NC(=O)N2CCCCCC2)CC1 [Example 40]

pIC50: 5.47
SMILES: CC(C)=CCN(c1ccc(C#CC2(O)CCCCC2)cc1)C1CCN(C(=O)C(CC(C)C)NC(=O)N2CCCCCC2)CC1 (stereo in doubt) [Example 43, (S)-Azepane-1-carboxylic acid (1-{4-[[4-(1-hydroxy-cyclohexylethynyl)-phenyl]-(3-methyl-but-2-enyl)-amino]-piperidine-1-carbonyl}-3-methyl-butyl)-amide]

pIC50: 5.60
SMILES: CC(C)C[C@H](NC(=O)N1CCCCCC1)C(=O)N1CCC(Nc2ccc(OCc3ccccc3)cc2)CC1 [Example 28, (S)-Azepane-1-carboxylic acid {1-[4-(4-benzyloxy-phenylamino)-piperidine-1-carbonyl]-3-methyl-butyl}-amide]

pIC50: 6.40
SMILES: CC(C)CCN(c1ccc(NCc2ccccc2)cc1)C1CCN(C(=O)[C@H](CC(C)C)NC(=O)N2CCCCCC2)CC1 [Example 39, (S)-Azepane-1-carboxylic acid (1-{4-[(4-benzylamino-phenyl)-(3-methyl-butyl)-amino]-piperidine-1-carbonyl}-3-methyl-butyl)-amide]

pIC50: 6.37
SMILES: CC(C)C[C@H](NC(=O)N1CCCCCC1)C(=O)N1CCC(N(Cc2ccccc2)c2ccc(OCc3ccccc3)cc2)CC1 [Example 31, (S)-Azepane-1-carboxylic acid (1-{4-[benzyl-(4-benzyloxy-phenyl)-amino]-piperidine-1-carbonyl}-3-methyl-butyl)-amide]

pIC50: 6.12
SMILES: CC(C)=CCN(c1ccc(OCc2ccccc2)cc1)C1CCN(C(=O)[C@H](CC(C)C)NC(C)C)CC1 [Example 24, (S)-1-{4-[(4-Benzyloxy-phenyl)-(3-methyl-but-2-enyl)-amino]-piperidin-1-yl}-2-isopropylamino-4-methyl-pentan-1-one]

pIC50: 6.08
SMILES: CCN(c1ccc(OCc2ccccc2)cc1)C1CCN(C(=O)[C@H](CC(C)C)NC(=O)N2CCCCCC2)CC1 [Example 30, (S)-Azepane-1-carboxylic acid (1-{4-[(4-benzyloxy-phenyl)-ethyl-amino]-piperidine-1-carbonyl}-3-methyl-butyl)-amide]

pIC50: 6.77
SMILES: CC(C)=CCN(c1ccc(NC(=O)OCc2ccccc2)cc1)C1CCN(C(=O)[C@H](CC(C)C)NC(=O)N2CCCCCC2)CC1 [Example 33, (S)-{4-[(1-{2-[(Azepane-1-carbonyl)-amino]-4-methyl-pentanoyl}-piperidin-4-yl)-(3-methyl-but-2-enyl)-amino]-phenyl}-carbamic acid benzyl ester]
